The values that follow come from US6756382B2, “Amide substituted imidazoquinolines” (3M Innovative Properties Company, priority 1999, dated 2004).

Data set [1] has as its system tumor necrosis factor (α). The data set can be described thus: Cytokine induction in human cells: tumor necrosis factor (α) secreted by PBMCs, ELISA. It counts as cell-based. To be noted: PBMC, incubated 18 to 24 hours, TNF determined by ELISA, read-out: Lowest Effective Concentration (μM) Tumor Necrosis Factor. A digest of the protocol:
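Human donor PBMCs at final 1.5-2×10^6 cells/mL in RPMI with 10% FBS incubated 18 to 24 h at 37° C. with serially diluted compound, DMSO at most 1% final. Supernatant TNF-α measured by ELISA; value is the lowest concentration inducing TNF.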

The subject of data set [2] is interferon (α). Briefly: Cytokine induction in human cells: interferon secreted by PBMCs, bioassay (A549 cells challenged with encephalomyocarditis virus). It counts as cell-based. Particulars: PBMC, incubated 18 to 24 hours, interferon determined using the bioassay method, read-out: Lowest Effective Concentration (μM) Interferon. The text has this:
An in vitro human blood cell system was used to assess cytokine induction by compounds of the invention. Activity is based on the measurement of interferon and tumor necrosis factor (α) (IFN and TNF, respectively) secreted into culture media as described by Testerman et. al. In “Cytokine Induction by the Immunomodulators Imiquimod and S-27609”, Journal of Leukocyte Biology, 58, 365-372 (September, 1995).
Whole blood is collected by venipuncture into EDTA vacutainer tubes from healthy human donors. Peripheral blood mononuclear cells (PBMCs) are separated from whole blood by density gradient centrifugation using Histopaque®-1077 (Sigma Chemicals, St. Louis, Mo.). The PBMCs are suspended at 3-4×10^6 cells/mL in RPMI 1640 medium containing 10% fetal bovine serum, 2 mM L-glutamine and 1% penicillin/streptomycin solution (RPMI complete). The PBMC suspension is added to 48 well flat bottom sterile tissue culture plates (Costar, Cambridge, Mass. or Becton Dickinson Labware, Lincoln Park, N.J.) containing an equal volume of RPMI complete media containing test compound.
The compounds are solubilized in dimethyl sulfoxide (DMSO). The DMSO concentration should not exceed a final concentration of 1% for addition to the culture wells.
The solution of test compound is added at 60 μM to the first well containing RPMI complete and serial (three fold or ten fold) dilutions are made. The PBMC suspension is then added to the wells in an equal volume, bringing the test compound concentrations to the desired range. The final concentration of PBMC suspension is 1.5-2×10^6 cells/mL. The plates are covered with sterile plastic lids, mixed gently and then incubated for 18 to 24 hours at 37° C. in a 5% carbon dioxide atmosphere.
Following incubation the plates are centrifuged for 5-10 minutes at 1000 rpm (˜200×g) at 4° C. The cell culture supernatant is removed with a sterile polypropylene pipet and transferred to sterile polypropylene tubes. Samples are maintained at −30 to −70° C. until analysis. The samples are analyzed for interferon (α) by either ELISA or bioassay and for tumor necrosis factor (α) by ELISA.
Interferon is determined by bioassay using A549 human lung carcinoma cells challenged with encephalomyocarditis. The details of the bioassay method have been described by G. L. Brennan and L. H. Kronenberg in “Automated Bioassay of Interferons in Micro-test Plates”, Biotechniques, June/July, 78, 1983, incorporated herein by reference. Briefly stated the method is as follows: A549 cells are incubated with dilutions of samples or a standard interferon at 37° C. for 24 hours. The incubated cells are then infected with an inoculum of encephalomyocarditis virus. The infected cells are incubated for an additional 24 hours at 37° C. before evaluating for viral cytopathic effect. The viral cytopathic effect is quantified by staining with crystal violet followed by visual scoring of the plates. Results are expressed as alpha reference units/mL based on the value obtained for NIH Human Leukocyte IFN standard.
The table below lists the lowest concentration found to induce interferon and the lowest concentration found to induce tumor necrosis factor for each compound. […] Unless otherwise indicated, the interferon biosynthesis was determined by ELISA.

Data set [3] concerns interferon (α). Briefly: Cytokine induction in human cells: interferon secreted by PBMCs, ELISA. It counts as cell-based. Particulars: PBMC, incubated 18 to 24 hours, interferon determined by ELISA, read-out: Lowest Effective Concentration (μM) Interferon. An outline of the steps: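 Human donor PBMCs at 1.5-2×10^6 cells/mL final in RPMI with 10% FBS, exposed to serially diluted compound (≤1% DMSO) for 18–24 h at 37 °C, 5% CO2. Supernatant interferon (α) measured by ELISA; value is lowest concentration inducing interferon.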
A general note: In an ELISA, binding on a coated surface is turned into a signal by an enzyme label.

In the case of `Nc1nc2ccccc2c2c1ncn2CCCCNC(=O)c1c(F)c(F)c(F)c(F)c1F` [Example 68], the results for the minimal effective concentration (in data set [1]; in the data set on interferon (α) [2]) were 10 µM and 1.11 µM, respectively.

With `Nc1nc2ccccc2c2c1ncn2CCCCNC(=O)c1ccccc1Cl` [Example 69], the figures for the minimal effective concentration (in data set [1]; in the data set with interferon (α) [2]) were 1.11 µM and 0.12 µM, respectively.

Regarding `Nc1nc2ccccc2c2c1ncn2CCCCNC(=O)c1c(Cl)cccc1Cl` [Example 71], the minimal effective concentration in data set [1] came out at 3.33 µM; in the data set on interferon (α) [2], 0.12 µM.

Take `Nc1nc2ccccc2c2c1ncn2CCCCNC(=O)c1ccc(F)cc1` [Example 72]: the minimal effective concentration came to 10 µM in data set [1] and 0.37 µM in the data set with interferon (α) [2].

Take `Nc1nc2ccccc2c2c1ncn2CCCCNC(=O)c1ccc(Cl)cc1` [Example 73]: the results for the minimal effective concentration (in data set [1]; in the data set with interferon (α) [2]) were 10 µM and 0.37 µM, respectively.

`COc1ccc(C(=O)NCCCCn2cnc3c(N)nc4ccccc4c32)cc1` [Example 74]: the minimal effective concentration in data set [1] was determined as 10 µM; in the data set with interferon (α) [2], 0.37 µM.

`Nc1nc2ccccc2c2c1ncn2CCCCNC(=O)c1ccc(C(F)(F)F)cc1` [Example 75]: the minimal effective concentration in the data set on interferon (α) [2] came out at 1.11 µM.

As to `CC(C)(C)c1ccc(C(=O)NCCCCn2cnc3c(N)nc4ccccc4c32)cc1` [Example 76], in the data set on interferon (α) [2], the minimal effective concentration is 3.33 µM.

As for `Cc1ccc(C(=O)NCCCCn2cnc3c(N)nc4ccccc4c32)cc1` [Example 77], the minimal effective concentration in data set [1] was determined as 10 µM; with interferon (α) [2], 1.11 µM.

Turning to `Nc1nc2ccccc2c2c1ncn2CCCCNC(=O)Cc1ccccc1` [Example 78], the values for the minimal effective concentration (in data set [1]; with interferon (α) [2]) were 10 µM and 0.12 µM, respectively.

Consider `Nc1nc2ccccc2c2c1ncn2CCCCNC(=O)/C=C/c1ccccc1` [Example 79], for which the minimal effective concentration in data set [1] is > 30 µM; in the data set with interferon (α) [2], 0.37 µM.

For `CC(C)(C)CC(=O)NCCCCn1cnc2c(N)nc3ccccc3c21` [Example 80], the minimal effective concentration turned out to be 10 µM in data set [1] and 1.11 µM with interferon (α) [2].

As to `Nc1nc2ccccc2c2c1ncn2CCCCNC(=O)C1CC1` [Example 81], the minimal effective concentration in data set [1] came out at 30 µM; in the data set on interferon (α) [2], 3.33 µM.

`Nc1nc2ccccc2c2c1ncn2CCCCNC(=O)C1CCCC1` [Example 82]: the figures for the minimal effective concentration (in data set [1]; with interferon (α) [2]) were 10 µM and 0.12 µM, respectively.

In the case of `Nc1nc2ccccc2c2c1ncn2CCCCNC(=O)CCC1CCCC1` [Example 83], the minimal effective concentration in the data set on interferon (α) [2] stood at 1.11 µM.

On to `Nc1nc2ccccc2c2c1ncn2CCCCNC(=O)C1CCCCC1` [Example 84], for which the results for the minimal effective concentration (in data set [1]; with interferon (α) [2]) were 10 µM and 0.12 µM, respectively.

For orientation: melting point means the temperature of the solid-liquid transition. Consider `COCCc1nc2c(N)nc3ccccc3c2n1CCCCNC(=O)c1cnc2ccccc2n1` [Example 183, N-{4-[4-amino-2-(2-methoxyethyl)-1H-imidazo [4,5-c]quinolin-1-yl]butyl}quinoxaline-2-carboxamide], for which the melting point lay within 85 to 87 °C. Besides, the minimal effective concentration in data set [1] is 0.04 µM. Besides, the minimal effective concentration in the data set with interferon (α) [3] was determined as 0.01 µM.

Molecule `CCCCc1nc2c(N)nc3ccccc3c2n1CCCCCCCCNC(=O)c1ccccc1` [Example 186, N-[8-(4-amino-2-butyl-1H-imidazo[4,5-c]quinolin-1-yl)octyl]benzamide] gave a melting point of 149.5 to 151.3 °C. In addition, the minimal effective concentration in data set [1] came to 0.12 µM. Besides, the minimal effective concentration with interferon (α) [3] was 0.04 µM.

As for `COCCc1nc2c(N)nc3ccccc3c2n1CCCCCCCCNC(=O)c1ccccc1` [Example 187, N-{8-[4-amino-2-(2-methoxyethyl)-1H-imidazo[4,5-c]quinolin-1-yl]octyl}benzamide], the melting point is 133.4 to 137.5 °C. Moreover, in data set [1], the minimal effective concentration turned out to be 0.01 µM. Also, the minimal effective concentration with interferon (α) [3] turned out to be 0.01 µM.

`CCCCc1nc2c(N)nc3ccccc3c2n1CCCNC(=O)c1ccccc1` [Example 189, N-[3-(4-amino-2-butyl-1H-imidazo[4,5-c]quinolin-1-yl)propyl]benzamide] returned a melting point of 189.4 to 190 °C. Further, the minimal effective concentration in data set [1] is 0.12 µM. Further, the minimal effective concentration in the data set on interferon (α) [3] is 0.04 µM.

`COCCc1nc2c(N)nc3ccccc3c2n1CC(C)(C)CNC(=O)c1ccccc1` [Example 190, N-{3-[4-amino-2-(2-methoxyethyl)-1H-imidazo[4,5-c]quinolin-1-yl]-2,2-dimethylpropyl}benzamide] came in with a melting point of 103 to 125 °C. Further, in data set [1], the minimal effective concentration stood at 0.01 µM. The minimal effective concentration in the data set with interferon (α) [3] was 0.01 µM.

`COCCc1nc2c(N)nc3ccccc3c2n1CCCNC(=O)c1cc2ccccc2cn1` [Example 192, N-{3-[4-amino-2-(2-methoxyethyl)-1H-imidazo[4,5-c]quinolin-1-yl]propyl}isoquinoline-3-carboxamide] showed a melting point of 198 to 198.5 °C. The minimal effective concentration in data set [1] is 0.37 µM. For the same molecule, the minimal effective concentration in the data set on interferon (α) [3] came to 0.12 µM.

In turn, `Nc1nc2ccccc2c2c1nc(CCCOc1ccccc1)n2CCCNC(=O)c1ccccc1` [Example 194, N-{3-[4-amino-2-(3-phenoxypropyl)-1H-imidazo[4,5-c]quinolin-1-yl]propyl}benzamide] returned a melting point of 192 to 194 °C. For the same molecule, the minimal effective concentration in data set [1] turned out to be 10 µM. In addition, the minimal effective concentration with interferon (α) [3] is > 30 µM.

In the case of `COCCc1nc2c(N)nc3ccccc3c2n1CCCNC(=O)c1ccccc1` [Example 196, N-{3-[4-amino-2-(2-methoxyethyl)-1H-imidazo[4,5-c]quinolin-1-yl]propyl}benzamide], the melting point was 183 to 186 °C. Further, the minimal effective concentration in data set [1] is 0.37 µM. Moreover, the minimal effective concentration in the data set with interferon (α) [3] was found to be 0.01 µM.
